We go through 1 substance from US20070122392A1, “Propagation of undifferentiated embryonic stem cells in hyaluronic acid hydrogel” (priority 2005, published 2007).

For data set [1], the system named is hESCs. In words: Long-term (24 hours) hyaluronidase treatment of hESC colonies. Format: cell-based, human. Particulars: growth medium containing hyaluronidase at all concentrations. How it is done:
(§1) Cell-gel constructs were cultivated in hESC grwoth medium containing 100 ng/ml bFGF or MEF conditioned media as previously described^1 Briefly, hESCs growth medium was incubated on inactivated MEF for 24 hours and collected and filtrated. bFGF (4 ng/ml) was added before use. Constructs were incubated up to 40 days. To release encapsulated hESCs, HA constructs were incubated for 24 h in hESC growth medium containing 100, 500, 1000 or 2000 U/ml hyaluronidase (Sigma, St. Louis, Mo.). For re-culture, cells were collected, centrifuged, washed three times with PBS to remove any hydrogel residues, re-suspended in growth medium, and cultured on MEF coated dishes using standard methods^22,23. For EB formation, hESCs were cultivated in non-adherent Petri-dishes.

For data set [2], the system named is hESCs. In words: Karyotyping analysis. In kind it is cell-based, human. Particulars: hESCs on MEFs (H9 p22; H13 p25) treated with hyaluronidase 2000 U/ml for 24 h. How it is done:
Karyotyping analysis. Cells were prepared and analyzed as previously described and recommended^30. Karyotyping analysis was performed by Dana Faber /Harvard Cancer Research Center, Cytogenetics Laboratory, Cambridge, Mass.

The nature of data set [3]: Hyaluronidase degradation of HA hydrogel and release of hESCs. How it is done:
as §1

Regarding hyaluronidase, in the data set with hESCs [1], the “hESC colony morphology and viability” value is reported as “preserved their normal morphology with no apparent loss of viability”. Further, in the data set on hESCs [2], the karyotype result is listed as “normal 46XX karyotyping”. In addition, in data set [3] (2000 U/ml hyaluronidase in growth medium), the “degradation of the HA hydrogel” value was “complete degradation”. In addition, in data set [3] (2000 U/ml hyaluronidase in growth medium, after 18 hr), the “state of hydrogel and hESCs” value is on record as “small particles of hydrogels remained that trapped hESCs”. The “release of hESC colonies from the hydrogel” value in data set [3] (2000 U/ml hyaluronidase in growth medium, after 24 hr) was “completely released”. Further, the “degradation of HA hydrogels” value in data set [3] (hyaluronidase concentrations of <1000 U/ml, 24 hr) is “only partial degradation”.
